Measured values from patent US10842767B2, “Use of ketone esters for prevention of CNS oxygen toxicity” (University of South Florida, priority 2011, dated 2020).
Several values for one entry are separate records, joined by “and”; a condition that tells them apart may be missing. Equal values may be shown once. Entries after “also recorded” stand apart in the source; their conditions may differ. Read-outs that look alike come from different tables or passages of the source.

Key:
[1] = in vivo; cited from earlier work
[2] = system: primary cultures of rat cortical neurons; assay: Superoxide anion production (DHE fluorescence) in primary cortex neurons exposed to HBO2 or amyloid beta; assay type: cell-based; conditions: 60 min 5 ATA O2, NBO and HBO
Method: Primary dissociated neuronal cultures of the hippocampus and cortex are acquired from Brain Bits LLC, to increase time efficiency and to minimize cost associated with purchasing rats. Hippocampal or cortical tissue from Brain Bits (shipped in Hibernate®) are enzymatically and mechanically dissociated via pipette trituration. Neurons are plated on 12 mm glass coverslips and allowed to adhere for 1-2 hrs in an incubator maintained at 9-20% O2 in a humidified atmosphere. Cultures are maintained in media purchased from Brain Bits, including NbActiv1® and NbActive4. […] Fluorescent probes (for use with fluorescence and confocal microscopy)
List of fluorescence probes that will be purchased from Invitrogen: • Dihydroethidium, DHE (1-10 μM; Exλ 525, Emλ 590) detects intracellular ·O2^− generation (Bindokas et al. 1996; D'Agostino et al. 2007). • Calcein-AM (4 μM; Exλ 490, Emλ 535) detects cell volume and monitors cell viability (Crowe, 1995; Inglefield, 1998; Inglefield, 1999). • Ethidium Homodimer-1, EH-1 (6 μM; Exλ 525, Emλ 590) enters cells upon membrane damage and thus labels dead or dying cells (Bickler and Hansen 1998; Pinheiro et al. 2006). Fluorescence and Confocal Microscopy […]
Presence of intracellular ROS is measured by detection of superoxide anion using Dihydroethidium (DHE). […] Cells are washed in PBS and then visualized using fluorescent microscopy or quantified using spectrophotometry.

[3] = for blood pH after administration (FIG. 20): from 7.45
[4] = Blood ketones (BHB, AcAc, acetone) and glucose after oral gavage; assay type: in vivo, rat; conditions: for blood BHB level versus control (words) / effect on blood glucose / blood AcAc / acetone level: ~10 g/kg gavage; for effect on blood glucose: over 4 hrs, relative to control (water); for blood AcAc / acetone level: acetone at 60 min; for duration of elevation of blood ketones: single oral/intragastric administration
Method: To determine the time course of ketosis, 18 adult male Sprague-Dawley rats (250-350 grams), pathogen-free, were purchased from a vendor (Harlan) and shipped 7 days after being implanted with carotid catheters. The rats were food (not water) deprived for 18 hours prior to the start of the experiment. […] Whole blood samples (10 μl) were acquired for analysis of glucose and BHB at USF utilizing a commercially available glucose/ketone monitoring system (Nova Max® Plus) at time 0, 30, 60, 120, 180 and 240 min. In addition, heparinized blood samples (200 μl) were collected into Eppendorf tubes at time 0, 30, 60, 120, 180 and 240 min. Samples were processed for the detection and quantification of BHB, AcAc, and acetone at Case Western Reserve University, Mouse Metabolic Phenotyping Center (MMPC). Briefly, samples were chilled on ice for 30 s, centrifuged in a micro-centrifuge (13,000 G) for 3-5 min and plasma (>100 μl), treated with reducing reagent of cold 0.2M sodium borodeuteride (NaBD4; Sigma, 205591, CAS 15681-89-7) dissolved in 0.1M NaOH (8.4 mg NaBD4 in 1 ml of 0.1M NaOH) and then immediately frozen on dry ice before storing at −80° C. Acetone was analyzed at the 60 minute time point, which was the predicted peak of blood AcAc levels (Desrochers et al. 1995). 300 μl of whole blood were collected in addition to the above collections, stabilized with cold 0.2M NaBD4, and then immediately frozen on dry ice. Samples were stored at −80° C. until analyzed for ketones. Internal standards of [^2H6]BHB or [^2H8]isopropanol were added to the treated plasma or blood samples (50 μl or 15 μl) and the BHB, AcAc (as M+1 of BHB) or acetone (as 2-propanol) metabolites were analyzed by gas chromatography-mass spectrometry (GC-MS) using an Agilent 5973 mass spectrometer, linked to a 6890 gas chromatograph equipped with an autosampler. Briefly, GC-MS conditions were either EI or CI mode (electron or chemical ionization mode); the samples were detected by selected ion monitoring as the BHB- and AcAc-trimethylsilyl derivatives (EI) or the derivative of acetone-pentafluorobenzoyl (CI). […]
Ketone measurements were taken at 30, 60, 120, 180 and 240 minutes. Blood plasma was treated with sodium borodeuteride (NaB2H4) to stabilize ketone concentration and then assayed by GC-MS. The rapid rise relating to blood ketones from BD-AcAc2 is due primarily from rapid desterfication in blood and tissues.

[5] = system: rats exposed to 5 ATA O2 (CNS oxygen toxicity seizures); assay: Latency to seizure (CNS-OT) in rats breathing hyperbaric oxygen at 5 ATA, radio-telemetry EEG; assay type: in vivo, rat; conditions: for increase in latency to seizure (LS) compared to control (water): rats, 5 ATA O2, ~10 g/kg (3 ml) gavage 30 min before dive
Source text: All animal procedures were done in accordance with the University of South Florida Institutional Animal Care and Use Committee (IACUC) guidelines. Adult male Sprague-Dawley rats (n=60), 250-300 grams, were obtained from Harlan, anesthetized in 3-5% isoflurane (in O2) and implanted with a 4ET radio-transmitter (Data Sciences International, DSI) using sterile surgical technique. One pair of leads (positive and negative poles) was implanted in the costal diaphragm at the junction with the abdominal wall for diaphragmatic electromyogram (dEMG) signals, one pair of electrodes was inserted in the pectoral muscle to acquire electrocardiogram (ECG) data, and two pairs of wires were embedded in the skull between Bregma and Lambda, with one lead on either side of midline for each pair (EEG recordings). The EMG wires were not inserted into crural diaphragmatic muscle because of the high risk of pneumothorax due to the thinness of the muscle (419 to 630 μm). 4ET radio-transmitters also monitored core body temperature and physical activity. Rats were weighed immediately before surgery and subsequently once every 7 days, just prior to the weekly exposures to HBO2. After surgery, every animal recovered for ≥1 week.
The radiotelemetry system consisted of an implantable 4ET radio-transmitter able to amplify and broadcast signals via a receiver (DSI PhysioTel, model RPC-2) connected to an acquisition interface unit (ACQ 7700 Ponemah) via electrical penetrations in the wall of the hyperbaric chamber. The acquisition interface unit was connected to a computer for real time data collection and storage. The same acquisition unit also recorded chamber pressure and temperature, which were measured, respectively, […] directly connected to the acquisition system via BNC (Bayonet Neill-Concelman) cables. Each animal was continuously monitored via a video camera (AXIS 221 Network Camera) and the video of each experiment was recorded as well.
The hyperbaric system consisted of two main elements: 1) a plexiglass chamber (˜3 liter capacity, Diamond Box, Buxco, Electronics Inc., model PLY3114), that housed the rat during the experiment, and 2) a hyperbaric chamber (Reimers System Inc.—7.8 ATA MWP), that contained the plexiglass chamber and functioned as the pressure vessel. Both chambers were connected to an air compressor (oil-less rotary scroll compressor—model DK6086, Powerex).
During each experiment (hyperbaric hyperoxia), both the main chamber and the animal chamber were filled with air. Rats were placed into the plexiglass chamber and allowed ten minutes to acclimate, at which time the plexiglass chamber was flushed with 100% O2. The animal was then allowed 15 minutes to acclimate before both chambers were compressed to 5 ATA (58.8 PSIG) at a rate of 0.7 ATA/min. […] Each experiment was visually monitored via a live camera. LS was calculated from the moment at which the internal and the external chambers reached 5 ATA until the onset of convulsions, identified as high-amplitude, high frequency spikes lasting 10 to 30 sec, followed by polyspikes and wave formation concurrent with tonic-clonic motions of forelimbs and head. […]
The details of this example are explained in the Materials and Methods section above. Briefly, the effects of ketone esters (KEs) in preventing CNS-OT in rats were assessed before, during and after HBO2 exposure by measuring various parameters. […]

## MCT oil
[1]
  level of ketones produced by supplementation: < 500 µM

## Cc1ccccc1NC(=N)Nc1ccccc1C [DTG, 1,3,-di-o-tolylguanidine]
[2]
  effect on superoxide production under hyperoxia: prevented the hyperoxia-induced increase in superoxide production

## C[C@H](O)CCO [BD, R,S-1,3-butanediol, reference compound]
[3]; acute administration
  acidosis: mild nonpathological acidosis
[3]; after about 30 minutes
  mean decrease of blood pH compared to control (pH~7.5): 0.05
[3]; after about one hour
  mean decrease of blood pH compared to control (pH~7.5): 0.1
[3]
  blood pH after administration (FIG. 20): 7.35
[4]; rats, 10 g/kg oral gavage
  blood BHB level: > 5 mM
[4]; rats
  blood BHB level versus control (words): significant increase in BHB
  effect on blood glucose: no significant effect on blood glucose levels
  blood AcAc / acetone level: only modest elevation in AcAc; also recorded: remained low or undetectable
[4]; rats, listed as 1,3-butanediol
  blood BHB level versus control (words): elevated blood levels of β-hydroxybutyrate

## (R)-1,3-butanediol ester [BHB ester, reference compound]
[4]; rats
  blood BHB level versus control (words): elevated blood levels of β-hydroxybutyrate

## CC(=O)CC(=O)OCCC(C)OC(=O)CC(C)=O (stereo not shown) [BD-AcAc2, R,S-1,3-butanediol acetoacetate diester]
[5]
  increase in latency to seizure (LS) compared to control (water): > 570%
[5]; listed as KE
  increase in latency to seizure (LS) compared to control (water): 574±115% and 574±116%
[5]; listed as dKE
  increase in latency to seizure (LS) compared to control (water): 570%
[3]; after about 30 minutes
  mean decrease of blood pH compared to control (pH~7.5): 0.05
[3]; after about one hour
  mean decrease of blood pH compared to control (pH~7.5): 0.1
[3]; during the 4 hour experiment
  blood pO2: > 120 mmHg
[3]
  blood pH after administration (FIG. 20): 7.35
[3]; significant and sustained
  increase in blood pO2 levels: approximately 30%
[4]; about 30 minutes after gavage
  total ketones: > 5 mM
[4]; after 1 hr, average
  total blood ketones (BHB, AcAc and acetone): > 6 mM
[4]; rats, 10 g/kg oral gavage
  blood AcAc level: > 3 mM
  blood BHB level: > 3 mM
[4]; rats
  blood BHB level versus control (words): significant increase in BHB and AcAc at 30 minutes
  effect on blood glucose: does not elevate blood glucose
[4]; rats, listed as KE
  effect on blood glucose: no significant effect on blood glucose levels
  blood AcAc / acetone level: significantly higher at 60 minutes; also recorded: increased significantly
[4]; single oral administration, for over 4 hrs
  sustained elevation of total ketones: > 6 mM
[4]
  duration of elevation of blood ketones: over 4 h
[4]; listed as KE
  duration of elevation of blood ketones: 4 h and > 4 h
[4]; within about 60 minutes after administration
  blood acetone level: ~0.7 mM

## CC(=O)CC(=O)OCCC(C)O (stereo not shown) [BD-AcAc, R,S-1,3-butanediol acetoacetate monoester]
[5]; HBO2 at 60 PSI (5 ATA O2), same rat without ketone ester about 8 minutes
  latency to seizure, single rat EEG (FIG. 7): 110 min
[5]
  increase in latency to seizure (LS) compared to control (water): 285%
